Laboratory results reported in patent publication US20260055061A1, “HALOPHTHALIMIDE COMPOUNDS AND METHODS OF USE AGAINST TBI, INFLAMMATORY DISORDER, AUTOIMMUNE DISORDER, NEURODEGENERATIVE DISEASE OR VIRAL INFECTION” (The United States of America, as represented by the …, priority 2022, published 2026).
Entries after “also recorded” stand apart in the source; their conditions may differ.

How the values were obtained:
[1] = test system: LPS-induced nitrite in RAW 264.7 cells; assay: LPS-induced nitrite production in RAW 264.7 cells (Griess reagent / fluorometric kit); format: cell-based, mouse; details: for Nitrite, % Change versus Control (± s.e.m.): 10 uM; for nitrite level, % of vehicle control: percentage of vehicle control value (control = 100%), mean ± S.E.M., n = 3; for nitrite inhibitory activity (comparison in words): tetrafluoro vs corresponding difluoro or stereoisomer
Method: Nitrite ion detection in drug treated […] cell culture media: To measure the levels of nitrite ion NO2—) the Griess Reagent System (Promega, Madison, WI, Cat #G2930) was utilized. The protocol followed was that recommended by the manufacturer. In brief a NO2— ion standard curve was prepared in culture media of the same composition to that used for the cell culture study. The concentration range of the standard curve was from 1.5 µM to 100 µM. Equal volumes (50 μL) of standards and unknown samples were added to clear 96 well plates in duplicate. Then 50 μL of sulfanilamide solution was added to each well and the plate was covered and incubated in the dark for 10 min. After the incubation period 50 μL of N-1-napthylethylenediamine dihydrochloride solution was added to each well and the plate was incubated in dark for a further 10 min. After this incubation, the plate was read at 550 nm on a SPECTRAmax PLUS plate reader and the absorbances were used to generate a NO2— standard curve and the NO2— ion levels of the unknown samples are determined using SoftMax Pro V5, Molecular Devices.
Most neurons are highly vulnerable to RNS and ROS. Nitric oxide (NO) is one of RNSs, which is very short lived and cannot be readily measured. However, nitrite is a stable end product of nitric oxide metabolism. Therefore, nitrite acts as a surrogate measure of NO. The Griess Reagent System (Promega Corporation, Madison, WI) can be applied to measure nitrite levels in culture media following the manufacturer's protocol, and this system was used in the present study as it is a more sensitive assay compared to quantifying actions on TNF-α by ELISA assay. […] This challenge induces high level of TNF-α protein accompanied by a robust generation of nitrite.
(§1) Cells were propagated as described by ATCC guidelines.

TNF-α = assay: LPS-induced TNF-α production in RAW 264.7 cells (ELISA); format: cell-based, mouse; details: for TNF-a, % Change versus Control (± s.e.m.): 10 uM; for TNF-α % Δ: percentage of vehicle control value (control = 100%), mean ± S.E.M., n = 3
Method: Enzyme-linked immunosorbent assay for TNF-α protein: Media TNF-α levels were measured by use of the Biolegend ELISA MAX Set Delux ELISA (#430904). The protocol used was that recommended by the manufacturer. In brief, a day prior to performing the assay, a 96 well plate was coated with a capture antibody directed against TNF-α. The following day the assay plate was washed and blocked with the kit blocking agent for 1 h while being mixed on a plate shaker at 200 rpm (all incubations were mixed at 200 rpm unless stated otherwise). A TNF-α protein standard curve was prepared in the assay diluent following the kit instructions and unknown media samples were likewise diluted in the same assay diluent. After blocking, the plate was washed and then both the standards and unknown media samples were added to the plate in duplicate. The standards and unknown samples were incubated for 2 h. After the incubation, the plate was washed and then the biotin labeled detection antibody was added to each well and incubated for a further 1 h. After this incubation, the avidin-HRP conjugate complex was added to each well and incubated for 30 min. The plate was washed and the chromogenic substrate 3,3′,5,5′-tetramethylbenzidine solution was added to each well. At this point the plate was covered and incubated in the dark for 15 min, with no mixing. After 15 min the chromogenic reaction was stopped by the addition of 2 N H2SO4 and the absorbance was read at 450 nm and for background subtractions at 570 nm, on a SPECTRAmax PLUS plate reader. The absorbances were used to generate a TNF-α a protein standard curve and the protein levels in the unknown samples were determined using SoftMax Pro V5, Molecular Devices.
as §1

RAW 264.7 cells = assay: Cell viability of drug treated RAW 264.7 cells (CellTiter 96 AQueous One, MTS); details: for Viability, % Change versus Control (± s.e.m.): 10 uM; for Cell Viability % Δ: percentage of vehicle control value, mean ± S.E.M., n = 3
[2] = LPS-activated RAW 264.7 cells (Table 9)
[3] = 1 μM, LPS-challenged RAW 264.7 cells
[4] = 10 μM, LPS-challenged RAW 264.7 cells
[5] = 30 μM, LPS-challenged RAW 264.7 cells

| Molecule | nitrite level, % of vehicle control [1, 3] [%] | nitrite inhibitory activity (comparison in words) ([1]; 1 μM) | TNF-α % Δ (TNF-α; [3]) [%] | Cell Viability % Δ (RAW 264.7 cells; 1 μM, RAW 264.7 cells) [%] | nitrite level, % of vehicle control [1, 4] [%] | TNF-α % Δ (TNF-α; [4]) [%] | Cell Viability % Δ (RAW 264.7 cells; 10 μM, RAW 264.7 cells) [%] | further results |
| --- | --- | --- | --- | --- | --- | --- | --- | --- |
| Nc1cccc2c1C(=O)N(C1CCC(=O)NC1=O)C2=O (centres unmarked) | – | – | – | – | – | – | – | Nitrite, % Change versus Control (± s.e.m.) [1, 2]: 91 ± 1.6 (N.S.) %; TNF-a, % Change versus Control (± s.e.m.) (TNF-α; [2]): 95 ± 4.8 (N.S.) %; Viability, % Change versus Control (± s.e.m.) (RAW 264.7 cells; [2]): 95 ± 1.2 (N.S.) % |
| 2-(2,6-dioxopiperidin-3-yl)-4-fluoro-7-nitroisoindoline-1,3-dione [Compound 23] | – | – | – | – | – | – | – | Nitrite, % Change versus Control (± s.e.m.) ([1]; LPS-activated RAW 264.7 cells): 56.8 ± 2.2%; TNF-a, % Change versus Control (± s.e.m.) (TNF-α; LPS-activated RAW 264.7 cells): 86.0 ± 4.4%; Viability, % Change versus Control (± s.e.m.) (RAW 264.7 cells; LPS-activated RAW 264.7 cells): 104.9 ± 2.1% |
| C[C@H]1[C@H](N2C(=O)c3c(F)c(F)c(F)c(F)c3C2=O)C[C@@H]2C[C@H]1C2(C)C [Compound 11, 4,5,6,7-Tetrafluoro-2-((1R,2R,3R,5S)-2,6,6-trimethylbicyclo[3.1.1]heptan-3-yl) isoindoline-1,3-dione] | 48 ± 2 | more potent nitrite inhibitory activity | 76 ± 2 | 90 ± 4 | – | – | – | – |
| C[C@@H]1[C@@H](N2C(=O)c3c(F)c(F)c(F)c(F)c3C2=O)C[C@H]2C[C@@H]1C2(C)C [Compound 12, 4,5,6,7-Tetrafluoro-2-((1S,2S,3S,5R)-2,6,6-trimethylbicyclo[3.1.1]heptan-3-yl) isoindoline-1,3-d ione] | 24 ± 3 | more potent nitrite inhibitory activity | 56 ± 5 | 63 ± 4 | – | – | – | – |
| CC1(C)[C@H]2CC[C@@H](CN3C(=O)c4c(F)c(F)c(F)c(F)c4C3=O)[C@@H]1C2 [Compound 13, 2-(((1S,2R,5S)-6,6-dimethylbicyclo[3.1.1]heptan-2-yl)methyl)-4,5,6,7-tetrafluoroisoindoline-1,3-dione] | 31 ± 3 | more potent nitrite inhibitory activity | 62 ± 3 | 78 ± 3 | – | – | – | – |
| O=C1c2c(F)c(F)c(F)c(F)c2C(=O)N1C1CC2CCC1C2 (stereo not drawn) [Compound 15, 2-Exo-(bicyclo[2.2.1]heptan-2-yl)-4,5,6,7-tetrafluoroisoindoline-1,3-dione] | 25 ± 2 | more potent nitrite inhibitory activity; also recorded: slightly more potent than diastereomer 16 | 71 ± 2 | – | – | – | – | nitrite levels [1, 3]: 25-36%; TNF-α level (TNF-α; [3]): 55-74% |
| C[C@H]1[C@H](N2C(=O)c3c(F)ccc(F)c3C2=O)C[C@@H]2C[C@H]1C2(C)C [Compound 17, 4,7-Difluoro-2-((1R,2R,3R,5S)-2,6,6-trimethylbicyclo[3.1.1]heptan-3-yl) isoindoline-1,3-dione] | 90 ± 5 | – | 95 ± 3 | 100 ± 4 | 54 ± 3 | 77 ± 3 | 81 ± 5 | – |
| CC1(C)[C@H]2CC[C@@H](CN3C(=O)c4c(F)ccc(F)c4C3=O)[C@@H]1C2 [Compound 19, 2-(((1S,2R,5S)-6,6-dimethylbicyclo[3.1.1]heptan-2-yl)methyl)-4,7-difluoroisoindoline-1,3-dione] | 79 ± 2 | – | 102 ± 2 | 98 ± 2 | 63 ± 3 | 82 ± 2 | 93 ± 4 | nitrite level, % of vehicle control [1, 5]: 22 ± 1%; Cell Viability % Δ (RAW 264.7 cells; 30 μM, RAW 264.7 cells): 67 ± 3% |
| CC1(C)[C@@H]2CC[C@@]1(C)[C@@H](N1C(=O)c3c(F)ccc(F)c3C1=O)C2 [Compound 20, 4,7-Difluoro-2-((1R,2S,4R)-1,7,7-trimethylbicyclo[2.2.1]heptan-2-yl) isoindoline-1,3-dione] | 90 ± 2 | – | 100 ± 2 | 101 ± 3 | 78 ± 3 | 98 ± 3 | 98 ± 4 | nitrite level, % of vehicle control [1, 5]: 39 ± 5%; inhibition at 30 µM ([1]; Mus musculus, RAW264.7, 30 μM, LPS-challenged RAW 264.7 cells, read-out: nitrite inhibitory activity): 39%; anti-TNF-α activity (TNF-α; [5]): 76%; TNF-α % Δ (TNF-α; [5]): 76 ± 4%; cell viability (RAW 264.7 cells; 30 μM, RAW 264.7 cells): 96%; Cell Viability % Δ (RAW 264.7 cells; 30 μM, RAW 264.7 cells): 96 ± 6%; cytotoxicity (in words) (RAW 264.7 cells; RAW 264.7 cells, 1 to 30 μM): the smallest |
